Active and inactive are the calls of the source. The calls are words filed in the database; no cut-off is given here.
What was measured:
[1] = Inhibition of trypsin
[2] = molecular target: Plasminogen (Homo sapiens) (UniProt P00747); test: Inhibition of plasmin
Sequence of Plasminogen (Homo sapiens) (P00747 97-580 limits assumed): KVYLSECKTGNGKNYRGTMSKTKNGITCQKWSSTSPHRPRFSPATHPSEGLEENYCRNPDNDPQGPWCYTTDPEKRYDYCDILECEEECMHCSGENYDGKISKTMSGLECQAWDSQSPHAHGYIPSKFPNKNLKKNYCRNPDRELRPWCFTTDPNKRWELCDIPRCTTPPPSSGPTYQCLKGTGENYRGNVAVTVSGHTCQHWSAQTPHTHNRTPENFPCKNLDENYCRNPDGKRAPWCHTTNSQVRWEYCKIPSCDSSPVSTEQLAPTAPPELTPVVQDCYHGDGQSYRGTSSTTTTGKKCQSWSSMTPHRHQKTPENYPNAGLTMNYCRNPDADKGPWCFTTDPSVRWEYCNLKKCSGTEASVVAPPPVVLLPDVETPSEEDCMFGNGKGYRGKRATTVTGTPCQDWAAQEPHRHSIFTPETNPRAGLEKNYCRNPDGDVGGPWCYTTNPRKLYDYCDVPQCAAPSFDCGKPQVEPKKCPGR
Sequence of Plasminogen (Homo sapiens) (P00747 581-810 limits assumed): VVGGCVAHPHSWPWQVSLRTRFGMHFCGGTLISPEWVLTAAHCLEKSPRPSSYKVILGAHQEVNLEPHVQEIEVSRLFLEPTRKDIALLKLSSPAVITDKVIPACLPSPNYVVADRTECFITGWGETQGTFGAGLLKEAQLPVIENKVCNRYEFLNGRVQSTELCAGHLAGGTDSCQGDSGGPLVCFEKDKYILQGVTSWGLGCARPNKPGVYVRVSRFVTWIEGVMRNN

Activity [1]: Active
Activity [2]: Active
SMILES: CN[C@H]1C=C/C(=C/[C@H](NC(C)=O)C(=O)N[C@@H](/C=C2/C=C[C@H](NC(C)=O)CC2)C(=O)O)CC1

Reference: ChEMBL document CHEMBL1150848, “Radiosumin B, an unusual dipeptide from the cyanobacterium Microcystis aeruginosa” (J Nat Prod, 2001)
